In the supplement of paper PMC10307832 one finds relative viability data, which are given here for eleven cell lines.

What all share (test): relative viability (nuclei count vs DMSO), 5 days (fraction); higher = more cells survive
Compound in the assay “RAF265 + Foretinib”: Cn1c(Nc2ccc(C(F)(F)F)cc2)nc2cc(Oc3ccnc(-c4ncc(C(F)(F)F)[nH]4)c3)ccc21 [RAF265] + COc1cc2c(Oc3ccc(NC(=O)C4(C(=O)Nc5ccc(F)cc5)CC4)cc3F)ccnc2cc1OCCCN1CCOCC1 [Foretinib] (partner 0.25 µM)
The gist of the method: (§1)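 One day after seeding in 1536-well plates, lung cancer cell lines were dosed by pin tool. Dosing was either single-drug or a fixed anchor-drug dose plus five library-drug doses (not always all listed) in √10 steps. After 5 days, nuclei were stained in one fix-and-stain step and counted on 4× images, and relative viability is the nuclei count of treated wells over that of vehicle wells, given as the median of duplicate plates.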

Compound in the assay “RAF265 + Pictilisib”: Cn1c(Nc2ccc(C(F)(F)F)cc2)nc2cc(Oc3ccnc(-c4ncc(C(F)(F)F)[nH]4)c3)ccc21 [RAF265] + CS(=O)(=O)N1CCN(Cc2cc3nc(-c4cccc5[nH]ncc45)nc(N4CCOCC4)c3s2)CC1 [Pictilisib] (partner 1 µM)
The procedure, abridged: as §1

Compound in the assay “Doramapimod + OSI-027”: Cc1ccc(-n2nc(C(C)(C)C)cc2NC(=O)Nc2ccc(OCCN3CCOCC3)c3ccccc23)cc1 [Doramapimod] + COc1cccc2cc(-c3nc([C@H]4CC[C@H](C(=O)O)CC4)n4ncnc(N)c34)[nH]c12 [OSI-027] (partner 0.5 µM)
The procedure, abridged: as §1

Compound in the assay “RAF265 + Palbociclib”: Cn1c(Nc2ccc(C(F)(F)F)cc2)nc2cc(Oc3ccnc(-c4ncc(C(F)(F)F)[nH]4)c3)ccc21 [RAF265] + CC(=O)c1c(C)c2cnc(Nc3ccc(N4CCNCC4)cn3)nc2n(C2CCCC2)c1=O [Palbociclib] (partner 0.5 µM)
The procedure, abridged:
as §1

On to IA-LM, for which the relative viability in the assay with RAF265 + Foretinib (first compound 0.01 µM) was determined as 1.21; with RAF265 + Foretinib (first compound 0.03162 µM), 0.933; with RAF265 + Foretinib (first compound 0.1 µM), 1; with RAF265 + Foretinib (first compound 0.3162 µM) it was 0.946; with RAF265 + Foretinib (first compound 1 µM) it was 0.769; with RAF265 + Pictilisib (first compound 0.01 µM) it was 0.334. Besides, the relative viability with RAF265 + Pictilisib (first compound 0.03162 µM) stood at 0.402; with RAF265 + Pictilisib (first compound 0.1 µM) it was 0.341; in the assay with RAF265 + Pictilisib (first compound 0.3162 µM), 0.336; with RAF265 + Pictilisib (first compound 1 µM), 0.186.

NCI-H522: the relative viability with Doramapimod + OSI-027 (first compound 0.02 µM) was 0.667; with Doramapimod + OSI-027 (first compound 0.06325 µM), 0.705; in the assay with Doramapimod + OSI-027 (first compound 0.2 µM), 0.767; in the assay with Doramapimod + OSI-027 (first compound 0.6325 µM) it was 0.68; with Doramapimod + OSI-027 (first compound 2 µM), 0.656; in the assay with RAF265 + Palbociclib (first compound 0.01 µM), 1.01. The relative viability in the assay with RAF265 + Palbociclib (first compound 0.03162 µM) amounted to 1.03; in the assay with RAF265 + Palbociclib (first compound 0.1 µM), 1.26; in the assay with RAF265 + Palbociclib (first compound 0.3162 µM), 0.99; with RAF265 + Palbociclib (first compound 1 µM) it was 0.863.

With NCI-H596, the relative viability came to 0.739 with RAF265 + Foretinib (first compound 0.01 µM); 0.929 in the assay with RAF265 + Foretinib (first compound 0.03162 µM); 0.866 with RAF265 + Foretinib (first compound 0.1 µM); 0.691 with RAF265 + Foretinib (first compound 0.3162 µM); 0.626 with RAF265 + Foretinib (first compound 1 µM); 0.417 with RAF265 + Pictilisib (first compound 0.01 µM). Further, the relative viability with RAF265 + Pictilisib (first compound 0.03162 µM) was found to be 0.338; with RAF265 + Pictilisib (first compound 0.1 µM) it was 0.372; in the assay with RAF265 + Pictilisib (first compound 0.3162 µM), 0.381; with RAF265 + Pictilisib (first compound 1 µM), 0.274; with Doramapimod + OSI-027 (first compound 0.02 µM), 0.653; with Doramapimod + OSI-027 (first compound 0.06325 µM), 0.658. Further, the results for the relative viability in the assay with Doramapimod + OSI-027 (first compound 0.2 µM), with Doramapimod + OSI-027 (first compound 0.6325 µM) and in the assay with Doramapimod + OSI-027 (first compound 2 µM) were 0.665, 0.783 and 0.57, respectively.

Consider NCI-H1299, for which the relative viability in the assay with RAF265 + Foretinib (first compound 0.01 µM) is 1.12; with RAF265 + Foretinib (first compound 0.03162 µM), 0.863; in the assay with RAF265 + Foretinib (first compound 0.1 µM) it was 1.08; in the assay with RAF265 + Foretinib (first compound 0.3162 µM), 1.07; with RAF265 + Foretinib (first compound 1 µM) it was 0.749; in the assay with RAF265 + Pictilisib (first compound 0.01 µM), 0.683. Besides, the relative viability with RAF265 + Pictilisib (first compound 0.03162 µM) is 0.407; with RAF265 + Pictilisib (first compound 0.1 µM), 0.223; with RAF265 + Pictilisib (first compound 0.3162 µM) it was 0.246; with RAF265 + Pictilisib (first compound 1 µM), 0.198.

Take NCI-H1563: the relative viability with RAF265 + Foretinib (first compound 0.01 µM) is 1.05; with RAF265 + Foretinib (first compound 0.03162 µM) it was 1; in the assay with RAF265 + Foretinib (first compound 0.1 µM), 0.984; in the assay with RAF265 + Foretinib (first compound 0.3162 µM) it was 0.989; in the assay with RAF265 + Foretinib (first compound 1 µM) it was 0.935; with RAF265 + Pictilisib (first compound 0.01 µM), 0.648. Further, the relative viability with RAF265 + Pictilisib (first compound 0.03162 µM) is 0.742; with RAF265 + Pictilisib (first compound 0.1 µM), 0.626; in the assay with RAF265 + Pictilisib (first compound 0.3162 µM), 0.604; with RAF265 + Pictilisib (first compound 1 µM), 0.718; with Doramapimod + OSI-027 (first compound 0.02 µM) it was 0.739; with Doramapimod + OSI-027 (first compound 0.06325 µM), 0.765. Moreover, the relative viability in the assay with Doramapimod + OSI-027 (first compound 0.2 µM) is 0.733; with Doramapimod + OSI-027 (first compound 0.6325 µM), 0.761; with Doramapimod + OSI-027 (first compound 2 µM), 0.73.

For NCI-H1623, the relative viability with RAF265 + Foretinib (first compound 0.01 µM) worked out at 0.977; in the assay with RAF265 + Foretinib (first compound 0.03162 µM), 0.867; in the assay with RAF265 + Foretinib (first compound 0.1 µM), 0.983; in the assay with RAF265 + Foretinib (first compound 0.3162 µM), 0.39; with RAF265 + Foretinib (first compound 1 µM), 0.562; in the assay with Doramapimod + OSI-027 (first compound 0.02 µM) it was 0.47. Further, the relative viability with Doramapimod + OSI-027 (first compound 0.06325 µM) came out at 0.475; with Doramapimod + OSI-027 (first compound 0.2 µM), 0.478; with Doramapimod + OSI-027 (first compound 0.6325 µM), 0.457; with Doramapimod + OSI-027 (first compound 2 µM), 0.397.

Turning to NCI-H1648, the relative viability was found to be 0.249 with Doramapimod + OSI-027 (first compound 0.02 µM); 0.254 with Doramapimod + OSI-027 (first compound 0.06325 µM); 0.257 with Doramapimod + OSI-027 (first compound 0.2 µM); 0.26 with Doramapimod + OSI-027 (first compound 0.6325 µM); 0.268 with Doramapimod + OSI-027 (first compound 2 µM); 0.287 with RAF265 + Palbociclib (first compound 0.01 µM). Also, the relative viability with RAF265 + Palbociclib (first compound 0.03162 µM) came to 0.283; with RAF265 + Palbociclib (first compound 0.1 µM), 0.266; with RAF265 + Palbociclib (first compound 0.3162 µM), 0.26; with RAF265 + Palbociclib (first compound 1 µM) it was 0.242.

In the case of NCI-H1703, the relative viability in the assay with RAF265 + Foretinib (first compound 0.01 µM) was 0.335; in the assay with RAF265 + Foretinib (first compound 0.03162 µM) it was 0.318; with RAF265 + Foretinib (first compound 0.1 µM), 0.351; with RAF265 + Foretinib (first compound 0.3162 µM), 0.357; with RAF265 + Foretinib (first compound 1 µM) it was 0.253; with RAF265 + Pictilisib (first compound 0.01 µM), 0.239. For the same cell line, the relative viability is 0.214 in the assay with RAF265 + Pictilisib (first compound 0.03162 µM), 0.218 with RAF265 + Pictilisib (first compound 0.1 µM), 0.238 with RAF265 + Pictilisib (first compound 0.3162 µM) and 0.196 with RAF265 + Pictilisib (first compound 1 µM).

As to NCI-H1792, the relative viability came out at 0.277 in the assay with RAF265 + Pictilisib (first compound 0.01 µM); 0.279 with RAF265 + Pictilisib (first compound 0.03162 µM); 0.223 with RAF265 + Pictilisib (first compound 0.1 µM); 0.166 with RAF265 + Pictilisib (first compound 0.3162 µM); 0.0856 in the assay with RAF265 + Pictilisib (first compound 1 µM); 0.634 with Doramapimod + OSI-027 (first compound 0.02 µM). Moreover, the relative viability with Doramapimod + OSI-027 (first compound 0.06325 µM) stood at 0.672; with Doramapimod + OSI-027 (first compound 0.2 µM), 0.628; with Doramapimod + OSI-027 (first compound 0.6325 µM) it was 0.702; with Doramapimod + OSI-027 (first compound 2 µM), 0.534; in the assay with RAF265 + Palbociclib (first compound 0.01 µM), 0.658; with RAF265 + Palbociclib (first compound 0.03162 µM) it was 0.676. In addition, the results for the relative viability in the assay with RAF265 + Palbociclib (first compound 0.1 µM), with RAF265 + Palbociclib (first compound 0.3162 µM) and in the assay with RAF265 + Palbociclib (first compound 1 µM) were 0.758, 0.474 and 0.298, respectively.

For the cell line NCI-H2342, the relative viability with RAF265 + Foretinib (first compound 0.01 µM) is 1.11; in the assay with RAF265 + Foretinib (first compound 0.03162 µM), 1.06; in the assay with RAF265 + Foretinib (first compound 0.1 µM), 1.12; in the assay with RAF265 + Foretinib (first compound 0.3162 µM), 0.992; in the assay with RAF265 + Foretinib (first compound 1 µM) it was 0.968; with Doramapimod + OSI-027 (first compound 0.02 µM), 0.622. In addition, the relative viability in the assay with Doramapimod + OSI-027 (first compound 0.06325 µM) was 0.657; in the assay with Doramapimod + OSI-027 (first compound 0.2 µM), 0.614; with Doramapimod + OSI-027 (first compound 0.6325 µM), 0.776; with Doramapimod + OSI-027 (first compound 2 µM) it was 0.542; with RAF265 + Palbociclib (first compound 0.01 µM) it was 0.582; with RAF265 + Palbociclib (first compound 0.03162 µM) it was 0.547. Besides, the relative viability in the assay with RAF265 + Palbociclib (first compound 0.1 µM) came to 0.558; with RAF265 + Palbociclib (first compound 0.3162 µM) it was 0.468; with RAF265 + Palbociclib (first compound 1 µM), 0.474.

With SW 900, the relative viability with RAF265 + Foretinib (first compound 0.01 µM) came to 1.01; with RAF265 + Foretinib (first compound 0.03162 µM), 0.835; with RAF265 + Foretinib (first compound 0.1 µM), 0.748; with RAF265 + Foretinib (first compound 0.3162 µM) it was 0.769; with RAF265 + Foretinib (first compound 1 µM), 0.546; in the assay with Doramapimod + OSI-027 (first compound 0.02 µM), 0.547. In addition, the relative viability with Doramapimod + OSI-027 (first compound 0.06325 µM) was 0.579; in the assay with Doramapimod + OSI-027 (first compound 0.2 µM), 0.858; in the assay with Doramapimod + OSI-027 (first compound 0.6325 µM) it was 0.599; with Doramapimod + OSI-027 (first compound 2 µM), 0.523; in the assay with RAF265 + Palbociclib (first compound 0.01 µM) it was 0.582; with RAF265 + Palbociclib (first compound 0.03162 µM), 0.558. The values for the relative viability in the assay with RAF265 + Palbociclib (first compound 0.1 µM), with RAF265 + Palbociclib (first compound 0.3162 µM) and with RAF265 + Palbociclib (first compound 1 µM) were 0.519, 0.396 and 0.237, respectively.
